Results from patent US20240150360A1 (THE REGENTS OF THE UNIVERSITY OF MICHIGAN, priority 2021, published 2024).

Columns and labels:
P300 = target: T1, P300 (Homo sapiens, UniProt Q09472); assay: P300 degradation in 22Rv1 cells (5 h); assay type: cell-based; conditions: 22Rv1 cells, 5 h; for Dmax: read-out: P300 Degradation (22Rv1, 5 h) DCmax
T1 construct: endogenous in cells; host or cells: 22Rv1 (ATCC CRL-2505) human prostate cancer cells
Source text: (§1) Biological Assays. […] Cells with 3-8 passages after purchase were used in experiments.

HL60 = assay: Cell growth inhibition in HL60; assay type: cell-based; conditions: Homo sapiens, HL-60, HL60 cells; read-out: Cell Growth Inhibition (IC50) HL60
22Rv1 cells = assay: Cell growth inhibition assay (CellTiter-Glo) in 22Rv1; assay type: cell-based, human; conditions: Homo sapiens, 22Rv1, 96 h, 22Rv1 cells, 96 h incubation; read-out: Cell Growth Inhibition (IC50) 22Rv1
How it was run: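 22Rv1 prostate cancer cells (passages 3-8, DMEM with 10% FBS) were seeded at 4000 cells/well with compound, 3-fold dilutions from 10 μM final. After 96 h at 37° C and 5% CO2, growth was read by CellTiter-Glo 2.0 luminescence.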

CBP = target: T2, CBP (Homo sapiens, UniProt Q92793); assay: CBP degradation in 22Rv1 cells (5 h); assay type: cell-based; conditions: 22Rv1 cells, 5 h; for Dmax: 22Rv1, 5 h, read-out: CBP Degradation (22Rv1, 5 h) DCmax
T2 construct: endogenous in cells; host or cells: 22Rv1 (ATCC CRL-2505) human prostate cancer cells
Source text: as §1

T2 sequence (Q92793 whole entry): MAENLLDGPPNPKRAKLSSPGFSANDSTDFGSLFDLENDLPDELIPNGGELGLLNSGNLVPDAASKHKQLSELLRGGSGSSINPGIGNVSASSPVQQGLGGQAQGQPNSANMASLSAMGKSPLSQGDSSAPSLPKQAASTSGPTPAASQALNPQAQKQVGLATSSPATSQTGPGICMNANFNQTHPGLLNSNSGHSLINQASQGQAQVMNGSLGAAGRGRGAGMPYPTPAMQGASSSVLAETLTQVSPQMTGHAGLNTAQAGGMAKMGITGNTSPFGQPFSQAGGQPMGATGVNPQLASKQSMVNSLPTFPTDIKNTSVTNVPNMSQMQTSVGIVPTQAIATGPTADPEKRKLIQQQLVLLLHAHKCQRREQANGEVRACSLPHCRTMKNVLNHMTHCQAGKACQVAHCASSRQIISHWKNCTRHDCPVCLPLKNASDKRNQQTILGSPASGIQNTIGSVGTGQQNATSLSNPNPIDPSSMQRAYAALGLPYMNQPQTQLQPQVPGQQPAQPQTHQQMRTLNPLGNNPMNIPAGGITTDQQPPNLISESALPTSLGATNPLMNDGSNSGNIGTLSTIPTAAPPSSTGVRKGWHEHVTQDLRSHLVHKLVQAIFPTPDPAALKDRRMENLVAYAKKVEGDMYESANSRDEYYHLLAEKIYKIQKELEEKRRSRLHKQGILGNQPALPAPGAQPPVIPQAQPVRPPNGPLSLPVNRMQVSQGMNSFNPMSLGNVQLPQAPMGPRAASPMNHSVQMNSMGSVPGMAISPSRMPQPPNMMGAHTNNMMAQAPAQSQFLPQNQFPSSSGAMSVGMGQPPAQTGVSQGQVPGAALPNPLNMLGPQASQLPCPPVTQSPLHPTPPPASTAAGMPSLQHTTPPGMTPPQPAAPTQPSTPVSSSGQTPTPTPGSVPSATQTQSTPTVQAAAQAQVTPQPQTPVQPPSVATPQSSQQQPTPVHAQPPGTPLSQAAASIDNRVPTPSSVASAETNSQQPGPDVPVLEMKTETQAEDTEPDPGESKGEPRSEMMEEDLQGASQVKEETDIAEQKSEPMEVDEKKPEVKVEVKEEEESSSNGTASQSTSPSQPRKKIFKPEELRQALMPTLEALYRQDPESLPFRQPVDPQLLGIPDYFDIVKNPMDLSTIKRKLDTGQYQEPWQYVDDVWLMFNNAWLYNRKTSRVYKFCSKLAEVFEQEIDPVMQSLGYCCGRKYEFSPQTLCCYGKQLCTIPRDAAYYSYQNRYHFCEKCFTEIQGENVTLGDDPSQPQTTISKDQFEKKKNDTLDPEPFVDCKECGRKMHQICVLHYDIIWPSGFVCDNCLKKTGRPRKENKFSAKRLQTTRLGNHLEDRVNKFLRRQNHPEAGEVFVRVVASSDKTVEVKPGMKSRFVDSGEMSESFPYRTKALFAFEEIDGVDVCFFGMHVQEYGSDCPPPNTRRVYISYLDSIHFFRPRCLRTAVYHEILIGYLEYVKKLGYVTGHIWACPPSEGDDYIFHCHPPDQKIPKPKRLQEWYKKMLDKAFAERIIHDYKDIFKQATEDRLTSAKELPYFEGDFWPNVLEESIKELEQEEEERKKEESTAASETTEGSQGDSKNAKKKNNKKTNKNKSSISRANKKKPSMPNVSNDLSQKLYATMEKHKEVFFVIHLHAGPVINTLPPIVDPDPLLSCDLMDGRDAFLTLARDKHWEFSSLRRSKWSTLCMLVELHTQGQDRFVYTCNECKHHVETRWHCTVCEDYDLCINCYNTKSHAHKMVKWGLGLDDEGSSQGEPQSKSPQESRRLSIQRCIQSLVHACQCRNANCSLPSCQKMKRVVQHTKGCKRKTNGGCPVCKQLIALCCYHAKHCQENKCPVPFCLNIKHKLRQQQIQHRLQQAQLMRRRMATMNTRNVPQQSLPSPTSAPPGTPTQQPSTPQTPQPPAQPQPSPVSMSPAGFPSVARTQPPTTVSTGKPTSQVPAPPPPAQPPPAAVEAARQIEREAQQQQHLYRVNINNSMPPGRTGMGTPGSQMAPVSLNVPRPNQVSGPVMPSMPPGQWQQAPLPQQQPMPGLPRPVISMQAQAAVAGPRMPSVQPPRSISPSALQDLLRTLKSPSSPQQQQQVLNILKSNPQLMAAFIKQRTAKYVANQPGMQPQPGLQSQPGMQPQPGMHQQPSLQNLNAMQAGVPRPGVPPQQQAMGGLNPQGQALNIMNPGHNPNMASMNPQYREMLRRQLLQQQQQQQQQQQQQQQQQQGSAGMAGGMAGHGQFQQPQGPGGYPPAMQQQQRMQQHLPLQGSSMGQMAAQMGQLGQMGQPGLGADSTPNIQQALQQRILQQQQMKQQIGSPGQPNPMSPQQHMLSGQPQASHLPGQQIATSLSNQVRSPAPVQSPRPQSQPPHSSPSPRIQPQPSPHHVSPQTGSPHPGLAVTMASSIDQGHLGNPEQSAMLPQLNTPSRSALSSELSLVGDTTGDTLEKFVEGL
T1 sequence (Q09472 whole entry): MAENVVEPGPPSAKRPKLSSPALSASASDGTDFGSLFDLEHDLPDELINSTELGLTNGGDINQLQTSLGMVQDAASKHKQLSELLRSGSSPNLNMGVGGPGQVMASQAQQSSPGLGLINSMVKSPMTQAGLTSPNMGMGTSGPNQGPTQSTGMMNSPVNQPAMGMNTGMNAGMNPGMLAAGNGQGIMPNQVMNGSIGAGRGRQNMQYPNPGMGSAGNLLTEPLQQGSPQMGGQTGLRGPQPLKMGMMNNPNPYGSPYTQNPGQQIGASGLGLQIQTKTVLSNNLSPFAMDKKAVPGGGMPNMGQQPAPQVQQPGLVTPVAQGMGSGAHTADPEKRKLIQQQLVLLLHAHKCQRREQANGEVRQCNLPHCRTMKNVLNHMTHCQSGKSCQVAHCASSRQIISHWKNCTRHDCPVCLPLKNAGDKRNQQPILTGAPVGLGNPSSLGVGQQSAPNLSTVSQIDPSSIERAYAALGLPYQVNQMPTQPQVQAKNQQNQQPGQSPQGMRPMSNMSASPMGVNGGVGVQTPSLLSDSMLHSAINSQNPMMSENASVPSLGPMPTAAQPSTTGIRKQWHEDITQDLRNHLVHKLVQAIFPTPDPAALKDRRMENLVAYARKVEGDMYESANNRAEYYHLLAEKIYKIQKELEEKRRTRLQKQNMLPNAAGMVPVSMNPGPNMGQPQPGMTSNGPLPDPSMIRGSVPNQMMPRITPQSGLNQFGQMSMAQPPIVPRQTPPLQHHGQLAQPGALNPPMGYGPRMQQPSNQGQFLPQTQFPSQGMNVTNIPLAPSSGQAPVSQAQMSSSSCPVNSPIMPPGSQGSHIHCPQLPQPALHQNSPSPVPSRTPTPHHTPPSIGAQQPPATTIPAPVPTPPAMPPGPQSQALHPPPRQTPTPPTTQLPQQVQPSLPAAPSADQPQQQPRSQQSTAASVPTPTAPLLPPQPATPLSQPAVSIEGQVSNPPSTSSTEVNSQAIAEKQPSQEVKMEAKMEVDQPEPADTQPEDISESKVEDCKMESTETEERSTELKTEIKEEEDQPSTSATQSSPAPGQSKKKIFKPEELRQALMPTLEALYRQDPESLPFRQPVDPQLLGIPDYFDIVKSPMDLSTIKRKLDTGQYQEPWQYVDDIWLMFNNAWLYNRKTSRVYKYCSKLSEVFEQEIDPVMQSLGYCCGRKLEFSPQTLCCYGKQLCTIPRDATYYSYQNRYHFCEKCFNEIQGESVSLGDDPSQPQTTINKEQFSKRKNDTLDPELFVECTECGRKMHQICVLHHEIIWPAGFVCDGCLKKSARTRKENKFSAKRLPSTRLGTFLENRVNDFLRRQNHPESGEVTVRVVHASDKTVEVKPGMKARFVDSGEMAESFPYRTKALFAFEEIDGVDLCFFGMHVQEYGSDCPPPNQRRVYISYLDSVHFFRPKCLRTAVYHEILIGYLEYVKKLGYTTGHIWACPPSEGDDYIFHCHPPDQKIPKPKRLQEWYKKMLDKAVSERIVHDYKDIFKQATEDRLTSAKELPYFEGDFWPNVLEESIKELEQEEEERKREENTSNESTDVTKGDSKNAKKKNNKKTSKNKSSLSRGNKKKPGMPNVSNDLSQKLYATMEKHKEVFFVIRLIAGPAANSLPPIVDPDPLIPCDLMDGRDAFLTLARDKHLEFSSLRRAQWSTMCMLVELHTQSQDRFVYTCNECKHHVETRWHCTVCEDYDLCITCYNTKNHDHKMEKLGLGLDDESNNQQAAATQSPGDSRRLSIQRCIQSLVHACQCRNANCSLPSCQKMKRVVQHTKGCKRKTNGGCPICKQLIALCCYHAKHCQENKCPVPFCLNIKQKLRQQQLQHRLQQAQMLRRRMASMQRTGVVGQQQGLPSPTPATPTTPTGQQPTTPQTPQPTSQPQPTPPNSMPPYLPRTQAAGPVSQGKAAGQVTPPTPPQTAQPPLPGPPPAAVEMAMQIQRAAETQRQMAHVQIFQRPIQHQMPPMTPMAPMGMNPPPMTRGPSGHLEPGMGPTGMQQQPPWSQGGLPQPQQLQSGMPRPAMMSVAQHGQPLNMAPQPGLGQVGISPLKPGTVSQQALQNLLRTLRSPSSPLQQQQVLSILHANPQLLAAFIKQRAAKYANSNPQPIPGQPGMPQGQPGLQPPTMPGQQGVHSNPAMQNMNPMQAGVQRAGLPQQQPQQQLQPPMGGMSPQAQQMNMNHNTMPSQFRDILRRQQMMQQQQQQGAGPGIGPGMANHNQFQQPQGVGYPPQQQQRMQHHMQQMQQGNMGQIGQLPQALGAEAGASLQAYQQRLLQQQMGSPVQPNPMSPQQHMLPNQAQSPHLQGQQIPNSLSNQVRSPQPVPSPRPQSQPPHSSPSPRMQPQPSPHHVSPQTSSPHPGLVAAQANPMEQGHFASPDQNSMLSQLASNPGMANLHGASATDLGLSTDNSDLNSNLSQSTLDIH

Row | DC50 (P300) [µM] | Dmax (P300) [%] | IC50 (HL60) [µM] | IC50 (22Rv1 cells) [µM] | Dmax (CBP) [%] | DC50 (CBP) [µM] | SMILES
1 | < 0.01 | > 90 | < 1 | < 1 | > 90 | < 0.01 | CC(=O)N1CCc2c(c(-c3cccc4ccccc34)nn2C2CCN(C(=O)CN3Cc4cc5c(cc4C3)C(=O)N(C3CCC(=O)NC3=O)C5=O)CC2)C1 (stereo not drawn) [CP-075, 6-(2-(4-(5-acetyl-3-(naphthalen-1-yl)-4,5,6,7-tetrahydro-1H-pyrazolo[4,3-c]pyridin-1-yl)piperidin-1-yl)-2-oxoethyl)-2-(2,6-dioxopiperidin-3-yl)-6,7-dihydropyrrolo[3,4-f]isoindole-1,3(2H,5H)-dione]
2 | < 0.01 | > 70 | < 1 | > 10 | > 90 | < 0.01 | CC(=O)N1CCc2c(c(-c3cccc4ccccc34)nn2C2CCN(C(=O)CN3CCc4cc5c(cc4C3)C(=O)N(C3CCC(=O)NC3=O)C5=O)CC2)C1 (stereo not drawn) [CP-076, 6-(2-(4-(5-acetyl-3-(naphthalen-1-yl)-4,5,6,7-tetrahydro-1H-pyrazolo[4,3-c]pyridin-1-yl)piperidin-1-yl)-2-oxoethyl)-2-(2,6-dioxopiperidin-3-yl)-5,6,7,8-tetrahydro-1H-pyrrolo[3,4-g]isoquinoline-1,3(2H)-dione]
3 | < 0.01 | > 90 | < 1 | < 1 | > 90 | < 0.01 | CC(=O)N1CCc2c(c(N3CCCc4cc5c(cc43)CCCC5)nn2C2CCN(C(=O)CN3Cc4cc5c(cc4C3)C(=O)N(C3CCC(=O)NC3=O)C5=O)CC2)C1 (stereo not drawn) [CP-077, 6-(2-(4-(5-acetyl-3-(3,4,6,7,8,9-hexahydrobenzo[g]quinolin-1(2H)-yl)-4,5,6,7-tetrahydro-1H-pyrazolo[4,3-c]pyridin-1-yl)piperidin-1-yl)-2-oxoethyl)-2-(2,6-dioxopiperidin-3-yl)-6,7-dihydropyrrolo[3,4-f]isoindole-1,3(2H,5H)-dione]

Second part, the compound before the results:

Row | SMILES | DC50 (P300) [µM] | Dmax (P300) [%] | IC50 (HL60) [µM] | IC50 (22Rv1 cells) [µM] | Dmax (CBP) [%] | DC50 (CBP) [µM]
4 | Cc1noc(C)c1-c1ccc2c(c1)nc([C@@H]1CCCC(=O)N1c1ccc(F)c(F)c1)n2C1CCN(C(=O)CN2CCc3cc4c(cc3CC2)C(=O)N(C2CCC(=O)NC2=O)C4=O)CC1 (stereo partly drawn) [CP-064, 7-(2-(4-(2-((S)-1-(3,4-difluorophenyl)-6-oxopiperidin-2-yl)-5-(3,5-dimethylisoxazol-4-yl)-1H-benzo[d]imidazol-1-yl)piperidin-1-yl)-2-oxoethyl)-2-(2,6-dioxopiperidin-3-yl)-6,7,8,9-tetrahydroazepino[4,5-f]isoindole-1,3(2H,5H)-dione] | > 1 | < 50 | > 10 | > 10 | < 50 | > 1
5 | Cc1noc(C)c1-c1ccc2c(c1)nc([C@@H]1CCCC(=O)N1c1ccc(F)c(F)c1)n2C1CCN(C(=O)CCN2Cc3cc4c(cc3C2)C(=O)N(C2CCC(=O)NC2=O)C4=O)CC1 (stereo partly drawn) [CP-065, 6-(3-(4-(2-((S)-1-(3,4-difluorophenyl)-6-oxopiperidin-2-yl)-5-(3,5-dimethylisoxazol-4-yl)-1H-benzo[d]imidazol-1-yl)piperidin-1-yl)-3-oxopropyl)-2-(2,6-dioxopiperidin-3-yl)-6,7-dihydropyrrolo[3,4-f]isoindole-1,3(2H,5H)-dione] | > 1 | < 50 | > 10 | > 10 | < 50 | > 1
6 | Cc1noc(C)c1-c1ccc2c(c1)nc([C@@H]1CCCC(=O)N1c1ccc(F)c(F)c1)n2C1CCN(C(=O)CCCN2Cc3cc4c(cc3C2)C(=O)N(C2CCC(=O)NC2=O)C4=O)CC1 (stereo partly drawn) [CP-066, 6-(4-(4-(2-((S)-1-(3,4-difluorophenyl)-6-oxopiperidin-2-yl)-5-(3,5-dimethylisoxazol-4-yl)-1H-benzo[d]imidazol-1-yl)piperidin-1-yl)-4-oxobutyl)-2-(2,6-dioxopiperidin-3-yl)-6,7-dihydropyrrolo[3,4-f]isoindole-1,3(2H,5H)-dione] | > 1 | < 50 | > 10 | > 10 | < 50 | > 1
